# Reference: patent publication US20220257592A1, “METHODS OF TREATING CANCER” (HOFFMANN-LA ROCHE INC., priority 2019, published 2022)
# Marks after values point to notes of the source that are not given here.
# Assays:
# [1] = target: cytochrome P450 3A4 (CYP3A4) (Homo sapiens, UniProt P08684); experiment: In vitro metabolism studies; assay type: in vitro ADME
# [2] = Expanded safety population (338 adult and 30 pediatric patients), fractures; assay type: in vivo, human
# Source text: In adult patients, some fractures occurred in the setting of a fall or other trauma to the affected area, while in pediatric patients, all fractures occurred in patients with minimal or no trauma. In general, there was inadequate assessment for tumor involvement at the site of fracture; however, radiologic abnormalities possibly indicative of tumor involvement were reported in some patients. In both adult and pediatric patients, most fractures were hip or other lower extremity fractures (e.g., femoral or tibial shaft). In a limited number of patients, bilateral femoral neck fractures occurred. The median time to fracture was 3.8 months (range 0.3 to 18.5 months) in adults and 4.0 months (range: 1.8 months to 7.4 months) in pediatric patients.
# [3] = human, in vivo
# TrkB = TrkB (Homo sapiens, UniProt Q16620); details: cited from earlier work
# TrkC = TrkC (Homo sapiens, UniProt Q16288); details: cited from earlier work
# [4] = target: anaplastic lymphoma kinase (ALK) (Homo sapiens, UniProt Q9UM73); details: cited from earlier work
# [5] = system: cancer having at least one molecular alteration in one or more of ALK, ROS1, TrkA, TrkB and TrkC; details: early clinical studies; cited from earlier work
smiles,measurement,setting,value
"CN1CCN(c2ccc(C(=O)Nc3n[nH]c4ccc(Cc5cc(F)cc(F)c5)cc34)c(NC3CCOCC3)c2)CC1 [Entrectinib, N-[5-(3,5-difluorobenzyl)-1H-indazol-3-yl]-4-(4-methyl-piperazin-1-yl)-2-(tetrahydro-pyran-4-ylamino)-benzamide]",CYP3A4 substrate status,[1],sensitive substrate of CYP3A4
same,route of clearance,[1]; in vitro studies,predominantly through hepatic metabolism
same,share of metabolism by CYP3A4,[1]; in vitro studies,~76%
same,Fractures,[2]; 30 pediatric patients,23%
same,Fractures,[2]; 338 adult patients,5%
same,Entrectinib interrupted due to fractures,[2]; adults,41%
same,Median time to fracture,"[2]; adults, range 0.3 to 18.5 months",3.8 months
same,Discontinuation due to fractures,"[2]; human, in vivo",No patients discontinued
same,Risk of fractures,"[2]; human, in vivo",increases the risk of fractures
same,Entrectinib interrupted due to fractures,[2]; pediatric patients,43%
same,Median time to fracture,"[2]; pediatric patients, range: 1.8 months to 7.4 months",4.0 months
same,"Dyspnea, Grade ≥3",[3]; both,6* %
same,Fatal event: completed suicide,[3]; both,0.3%
same,Fatal event: dyspnea,[3]; both,0.6%
same,Fatal event: pneumonia,[3]; both,0.6%
same,Fatal event: sepsis,[3]; both,0.6%
same,Fatal event: tumor lysis syndrome,[3]; both,0.3%
same,"Lung infection, Grade ≥3",[3],6* %
same,inhibition of TrkB tyrosine kinase,TrkB,potent inhibitor
same,inhibition of TrkC tyrosine kinase,TrkC,potent inhibitor
same,inhibition of ALK tyrosine kinase,[4],potent inhibitor
same,antitumor effects in patients,[5],antitumor effects
